Tested on: Metabolism protein genes
Test: DNA chip mRNA expression in yeast, metabolism protein genes (Table 7)
Type: cell-based, Saccharomyces cerevisiae S288C
Method in brief: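 In this screen, yeast in logarithmic growth are challenged for two hours with a toxic substance at a non-lethal inhibitory concentration. Their mRNA, converted to Cy3- or Cy5-labeled cDNA, hybridizes at 65° C. to a chip spanning every yeast gene, and expression is expressed as a ratio to untreated cells.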

C[S+](C)[O-] [(15), dimethylsulfoxide]
The level of expressed mRNA in the presence of chemical substance/The level of expressed mRNA in the absence of chemical substance (yeast gene YAL012W): 3.1
The level of expressed mRNA in the presence of chemical substance/The level of expressed mRNA in the absence of chemical substance (yeast gene YAL038W): 3.1
The level of expressed mRNA in the presence of chemical substance/The level of expressed mRNA in the absence of chemical substance (yeast gene YAL044C): 0.7
The level of expressed mRNA in the presence of chemical substance/The level of expressed mRNA in the absence of chemical substance (yeast gene YAL054C): 0.9
The level of expressed mRNA in the presence of chemical substance/The level of expressed mRNA in the absence of chemical substance (yeast gene YAR071W): 1.1
The level of expressed mRNA in the presence of chemical substance/The level of expressed mRNA in the absence of chemical substance (yeast gene YBL001C): 1.0
level of expressed mRNA in the presence/in the absence of chemical substance (yeast gene YBR003W): 0.7
level of expressed mRNA in the presence/in the absence of chemical substance (yeast gene YBR011C): 2.1
The level of expressed mRNA in the presence of chemical substance/The level of expressed mRNA in the absence of chemical substance (yeast gene YBR014C): 1.2
level of expressed mRNA in the presence/in the absence of chemical substance (yeast gene YBR020W): 1.3
The level of expressed mRNA in the presence of chemical substance/The level of expressed mRNA in the absence of chemical substance (yeast gene YBR023C): 2.8
The level of expressed mRNA in the presence of chemical substance/The level of expressed mRNA in the absence of chemical substance (yeast gene YBR029C): 3.5
The level of expressed mRNA in the presence of chemical substance/The level of expressed mRNA in the absence of chemical substance (yeast gene YBR035C): 0.7
The level of expressed mRNA in the presence of chemical substance/The level of expressed mRNA in the absence of chemical substance (yeast gene YBR068C): 1.6
The level of expressed mRNA in the presence of chemical substance/The level of expressed mRNA in the absence of chemical substance (yeast gene YBR111C): 0.7
The level of expressed mRNA in the presence of chemical substance/The level of expressed mRNA in the absence of chemical substance (yeast gene YBR183W): 1.1
The level of expressed mRNA in the presence of chemical substance/The level of expressed mRNA in the absence of chemical substance (yeast gene YBR256C): 1.6
The level of expressed mRNA in the presence of chemical substance/The level of expressed mRNA in the absence of chemical substance (yeast gene YCL009C): 6.5
level of expressed mRNA in the presence/in the absence of chemical substance (yeast gene YCR010C): 1.2
level of expressed mRNA in the presence/in the absence of chemical substance (yeast gene YCR034W): 0.9
The level of expressed mRNA in the presence of chemical substance/The level of expressed mRNA in the absence of chemical substance (yeast gene YCR037C): 1.0
The level of expressed mRNA in the presence of chemical substance/The level of expressed mRNA in the absence of chemical substance (yeast gene YCR048W): 3.1
The level of expressed mRNA in the presence of chemical substance/The level of expressed mRNA in the absence of chemical substance (yeast gene YCR098C): 11.0
The level of expressed mRNA in the presence of chemical substance/The level of expressed mRNA in the absence of chemical substance (yeast gene YDL021W): 0.7
The level of expressed mRNA in the presence of chemical substance/The level of expressed mRNA in the absence of chemical substance (yeast gene YDL022W): 0.9
level of expressed mRNA in the presence/in the absence of chemical substance (yeast gene YDR050C): 1.9
level of expressed mRNA in the presence/in the absence of chemical substance (yeast gene YDR073W): 0.8
level of expressed mRNA in the presence/in the absence of chemical substance (yeast gene YDR123C): 1.2
level of expressed mRNA in the presence/in the absence of chemical substance (yeast gene YDR178W): 0.7
level of expressed mRNA in the presence/in the absence of chemical substance (yeast gene YDR277C): 0.4
level of expressed mRNA in the presence/in the absence of chemical substance (yeast gene YDR284C): 0.9
level of expressed mRNA in the presence/in the absence of chemical substance (yeast gene YDR345C): 0.8
The level of expressed mRNA in the presence of chemical substance/The level of expressed mRNA in the absence of chemical substance (yeast gene YDR380W): 2.4
level of expressed mRNA in the presence/in the absence of chemical substance (yeast gene YDR400W): 0.8
level of expressed mRNA in the presence/in the absence of chemical substance (yeast gene YDR408C): 1.0
The level of expressed mRNA in the presence of chemical substance/The level of expressed mRNA in the absence of chemical substance (yeast gene YDR410C): 1.2
level of expressed mRNA in the presence/in the absence of chemical substance (yeast gene YDR483W): 1.5
The level of expressed mRNA in the presence of chemical substance/The level of expressed mRNA in the absence of chemical substance (yeast gene YDR487C): 1.0
The level of expressed mRNA in the presence of chemical substance/The level of expressed mRNA in the absence of chemical substance (yeast gene YDR502C): 8.2
The level of expressed mRNA in the presence of chemical substance/The level of expressed mRNA in the absence of chemical substance (yeast gene YDR516C): 0.4
The level of expressed mRNA in the presence of chemical substance/The level of expressed mRNA in the absence of chemical substance (yeast gene YEL011W): 0.4
level of expressed mRNA in the presence/in the absence of chemical substance (yeast gene YEL063C): 1.3
level of expressed mRNA in the presence/in the absence of chemical substance (yeast gene YER015W): 0.8
The level of expressed mRNA in the presence of chemical substance/The level of expressed mRNA in the absence of chemical substance (yeast gene YER026C): 4.0
The level of expressed mRNA in the presence of chemical substance/The level of expressed mRNA in the absence of chemical substance (yeast gene YER053C): 1.1
level of expressed mRNA in the presence/in the absence of chemical substance (yeast gene YER081W): 0.5
The level of expressed mRNA in the presence of chemical substance/The level of expressed mRNA in the absence of chemical substance (yeast gene YER096W): 1.4
level of expressed mRNA in the presence/in the absence of chemical substance (yeast gene YER120W): 1.5
The level of expressed mRNA in the presence of chemical substance/The level of expressed mRNA in the absence of chemical substance (yeast gene YER178W): 1.8
level of expressed mRNA in the presence/in the absence of chemical substance (yeast gene YFL011W): 1.7
The level of expressed mRNA in the presence of chemical substance/The level of expressed mRNA in the absence of chemical substance (yeast gene YFL014W): 6.3
The level of expressed mRNA in the presence of chemical substance/The level of expressed mRNA in the absence of chemical substance (yeast gene YFL030W): 1.1
The level of expressed mRNA in the presence of chemical substance/The level of expressed mRNA in the absence of chemical substance (yeast gene YFL056C): 5.0
The level of expressed mRNA in the presence of chemical substance/The level of expressed mRNA in the absence of chemical substance (yeast gene YFR015C): 0.4
The level of expressed mRNA in the presence of chemical substance/The level of expressed mRNA in the absence of chemical substance (yeast gene YFR047C): 0.6
The level of expressed mRNA in the presence of chemical substance/The level of expressed mRNA in the absence of chemical substance (yeast gene YGL001C): 0.9
level of expressed mRNA in the presence/in the absence of chemical substance (yeast gene YGL012W): 0.6
The level of expressed mRNA in the presence of chemical substance/The level of expressed mRNA in the absence of chemical substance (yeast gene YGL022W): 4.0
The level of expressed mRNA in the presence of chemical substance/The level of expressed mRNA in the absence of chemical substance (yeast gene YGL104C): 0.9
level of expressed mRNA in the presence/in the absence of chemical substance (yeast gene YGL115W): 0.7
The level of expressed mRNA in the presence of chemical substance/The level of expressed mRNA in the absence of chemical substance (yeast gene YGL126W): 2.8
The level of expressed mRNA in the presence of chemical substance/The level of expressed mRNA in the absence of chemical substance (yeast gene YGL154C): 0.8
level of expressed mRNA in the presence/in the absence of chemical substance (yeast gene YGL205W): 2.0
The level of expressed mRNA in the presence of chemical substance/The level of expressed mRNA in the absence of chemical substance (yeast gene YGL248W): 1.8
The level of expressed mRNA in the presence of chemical substance/The level of expressed mRNA in the absence of chemical substance (yeast gene YGL253W): 0.8
The level of expressed mRNA in the presence of chemical substance/The level of expressed mRNA in the absence of chemical substance (yeast gene YGR037C): 1.5
The level of expressed mRNA in the presence of chemical substance/The level of expressed mRNA in the absence of chemical substance (yeast gene YGR060W): 1.4
level of expressed mRNA in the presence/in the absence of chemical substance (yeast gene YGR096W): 0.9
level of expressed mRNA in the presence/in the absence of chemical substance (yeast gene YGR191W): 1.5
The level of expressed mRNA in the presence of chemical substance/The level of expressed mRNA in the absence of chemical substance (yeast gene YGR194C): 0.6
level of expressed mRNA in the presence/in the absence of chemical substance (yeast gene YGR204W): 1.6
level of expressed mRNA in the presence/in the absence of chemical substance (yeast gene YGR288W): 0.8
level of expressed mRNA in the presence/in the absence of chemical substance (yeast gene YHR025W): 2.1
The level of expressed mRNA in the presence of chemical substance/The level of expressed mRNA in the absence of chemical substance (yeast gene YHR037W): 1.1
The level of expressed mRNA in the presence of chemical substance/The level of expressed mRNA in the absence of chemical substance (yeast gene YHR092C): 0.2
The level of expressed mRNA in the presence of chemical substance/The level of expressed mRNA in the absence of chemical substance (yeast gene YHR111W): 1.1
level of expressed mRNA in the presence/in the absence of chemical substance (yeast gene YHR123W): 2.3
The level of expressed mRNA in the presence of chemical substance/The level of expressed mRNA in the absence of chemical substance (yeast gene YHR137W): 2.8
The level of expressed mRNA in the presence of chemical substance/The level of expressed mRNA in the absence of chemical substance (yeast gene YHR174W): 2.0
The level of expressed mRNA in the presence of chemical substance/The level of expressed mRNA in the absence of chemical substance (yeast gene YHR176W): 1.5
The level of expressed mRNA in the presence of chemical substance/The level of expressed mRNA in the absence of chemical substance (yeast gene YHR190W): 1.3
level of expressed mRNA in the presence/in the absence of chemical substance (yeast gene YHR210C): 0.5
level of expressed mRNA in the presence/in the absence of chemical substance (yeast gene YIL006W): 1.5
The level of expressed mRNA in the presence of chemical substance/The level of expressed mRNA in the absence of chemical substance (yeast gene YIL033C): 1.0
The level of expressed mRNA in the presence of chemical substance/The level of expressed mRNA in the absence of chemical substance (yeast gene YIL045W): 0.6
The level of expressed mRNA in the presence of chemical substance/The level of expressed mRNA in the absence of chemical substance (yeast gene YIL107C): 1.0
The level of expressed mRNA in the presence of chemical substance/The level of expressed mRNA in the absence of chemical substance (yeast gene YIL154C): 4.3
The level of expressed mRNA in the presence of chemical substance/The level of expressed mRNA in the absence of chemical substance (yeast gene YIL155C): 1.4
The level of expressed mRNA in the presence of chemical substance/The level of expressed mRNA in the absence of chemical substance (yeast gene YIL167W): 0.6
The level of expressed mRNA in the presence of chemical substance/The level of expressed mRNA in the absence of chemical substance (yeast gene YIR036C): 1.1

Reference: patent US8192962B2, “Processes for detecting toxic substances” (Daikin Industries, Ltd., priority 2001, dated 2012)
